Source: patent US8129398B2 (priority 2008, dated 2012)

These molecules were tested against T1, HIV-integrase (Human immunodeficiency virus type 1 group M subtype B, UniProt P12497) (assay: HIV-Integrase Inhibition Activity (SPA bead integration assay with P33 labeled target DNA)). Details: in vitro activity, recombinant integrase, class symbols.
T1 construct: Recombinant integrase (0.26 ng) was incubated with the beads
Assay type: biochemical
How it was run: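 Strand integration read as bead-proximity CPM after P33 target DNA (0.1 fmol) and inhibitor were added to washed integrase–substrate DNA complexes on SPA beads. Enzyme bound 90 min at 37° C; EDTA (10 mM final) terminated reaction; IC50 graded A/B/C.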
In the case of `CC1(C)[C@@H]2CC[C@@]1(C)[C@@H](NS(C)(=O)=O)c1nc(C(=O)NCc3ccc(F)cc3)c(O)c(=O)n1C2` [Example 185, (7S,10R,11R)—N-(4-Fluorobenzyl)-3-hydroxy-10,12,12-trimethyl-11-((methylsulfonyl)amino)-4-oxo-6,7,8,9,10,11-hexahydro-4H-7,10-methanopyrimido[1,2-a]azocine-2-carboxamide], the IC50 is reported as > 0.1 µM.

Same assay, conditions: recombinant integrase, class symbols; read-out: in vitro activity
`O=C(NC12CCC(Cn3c1nc(C(=O)NCc1ccc(F)cc1)c(O)c3=O)C2)OCc1ccccc1` (stereo not drawn) [Example 189, Carbamic acid, [2-[[[(4-fluorophenyl)methyl]amino]carbonyl]-6,7,8,9-tetrahydro-3-hydroxy-4-oxo-7,10-methanopyrimido[1,2-a]azepin-10(4H)-yl]-, phenylmethyl ester] was tested, and the IC50 was < 0.01 µM.
In the case of `O=C(NC12CCC(CC1)Cn1c2nc(C(=O)NCc2ccc(F)cc2)c(O)c1=O)c1ccc(C(F)(F)F)nc1` [Example 323, 7,10-Ethanopyrimido[1,2-a]azepine-2-carboxamide, N-[(4-fluorophenyl)methyl]-4,6,7,8,9,10-hexahydro-3-hydroxy-4-oxo-10-[[[6-(trifluoromethyl)-3-pyridinyl]carbonyl]amino]-], the IC50 is reported as < 0.01 µM.
In the case of `CS(=O)(=O)N1CCN(C(=O)N2CCN(C(=O)C(=O)NC34CCC(CC3)Cn3c4nc(C(=O)NCc4ccc(F)cc4)c(O)c3=O)CC2)C1=O` [Example 144, N-(4-Fluorobenzyl)-3-hydroxy-10-(((4-((3-(methylsulfonyl)-2-oxo-1-imidazolidinyl)carbonyl)-1-piperazinyl)(oxo)acetyl)amino)-4-oxo-4,6,7,8,9,10-hexahydro-7,10-ethanopyrimido[1,2-a]azepine-2-carboxamide], the IC50 is reported as < 0.01 µM.
In the case of `C[C@@H]1CN(C(=O)C(=O)NC23CCC(CC2)Cn2c3nc(C(=O)NCc3ccc(F)cc3)c(O)c2=O)C[C@H](C)O1` [Example 64, 10-((((2R,6S)-2,6-Dimethyl-4-morpholinyl)(oxo)acetyl)amino)-N-(4-fluorobenzyl)-3-hydroxy-4-oxo-4,6,7,8,9,10-hexahydro-7,10-ethanopyrimido[1,2-a]azepine-2-carboxamide], the IC50 is reported as < 0.01 µM.
`CC(=O)N1CCCC1C(=O)NC12CCC(CC1)Cn1c2nc(C(=O)NCc2ccc(F)cc2)c(O)c1=O` (stereo in doubt) [Example 253, 7,10-Ethanopyrimido[1,2-a]azepine-2-carboxamide, 10-[[[(2R)-1-acetyl-2-pyrrolidinyl]carbonyl]amino]-N-[(4-fluorophenyl)methyl]-4,6,7,8,9,10-hexahydro-3-hydroxy-4-oxo-] showed an IC50 of 0.01 to 0.1 µM.
`O=C(NC12CCC(CC1)Cn1c2nc(C(=O)NCc2ccc(F)cc2)c(O)c1=O)C(=O)N1CC[C@@H](F)C1` [Example 104, N-(4-Fluorobenzyl)-10-((((3R)-3-fluoro-1-pyrrolidinyl)(oxo)acetyl)amino)-3-hydroxy-4-oxo-4,6,7,8,9,10-hexahydro-7,10-ethanopyrimido[1,2-a]azepine-2-carboxamide] was tested, and the IC50 was < 0.01 µM.
`CN(C)C(=O)C(=O)NC12CCC(CC1)Cn1c2nc(C(=O)NCCCc2ccc(F)cc2)c(O)c1=O` [Example 130, N′-(2-((3-(4-Fluorophenyl)propyl)carbamoyl)-3-hydroxy-4-oxo-6,7,8,9-tetrahydro-7,10-ethanopyrimido[1,2-a]azepin-10(4H)-yl)-N,N-dimethylethanediamide] was tested, and the IC50 was < 0.01 µM.
For `Cc1nnc(C(=O)NC23CCC(CC2)n2c3nc(C(=O)NCc3ccc(F)cc3)c(O)c2=O)o1` [Example 17, 6,9-Ethano-4H-pyrido[1,2-a]pyrimidine-2-carboxamide, N-[(4-fluorophenyl)methyl]-6,7,8,9-tetrahydro-3-hydroxy-9-[[(5-methyl-1,3,4-oxadiazol-2-yl)carbonyl]amino]-4-oxo-], the IC50 was < 0.01 µM.
`CS(=O)(=O)N1CCN(C(=O)C(=O)NC23CCC(CC2)Cn2c3nc(C(=O)NCc3ccc(F)cc3)c(O)c2=O)CC1` [Example 76, N-(4-Fluorobenzyl)-3-hydroxy-10-(((4-(methylsulfonyl)-1-piperazinyl)(oxo)acetyl)amino)-4-oxo-4,6,7,8,9,10-hexahydro-7,10-ethanopyrimido[1,2-a]azepine-2-carboxamide] was tested, and the IC50 was < 0.01 µM.
Molecule `CN(C)C(=O)C(=O)NC12CCC(CC1)Cn1c2nc(C(=O)NCc2ccc(F)cc2-c2ncnn2C)c(O)c1=O` [Example 107, N′-(2-((4-Fluoro-2-(1-methyl-1H-1,2,4-triazol-5-yl)benzyl)carbamoyl)-3-hydroxy-4-oxo-6,7,8,9-tetrahydro-7,10-ethanopyrimido[1,2-a]azepin-10(4H)-yl)-N,N-dimethylethanediamide] has an IC50 of 0.01 to 0.1 µM.
`CN(C)C(=O)C(=O)NC12CCC(Cn3c1nc(C(=O)NCc1ccc(F)cc1)c(O)c3=O)OC2` (stereo not drawn) [Example 222, N′-(2-((4-Fluorobenzyl)carbamoyl)-3-hydroxy-4-oxo-6,7,8,9-tetrahydro-7,10-(epoxymethano)pyrimido[1,2-a]azepin-10(4H)-yl)-N,N-dimethylethanediamide] was tested, and the IC50 was < 0.01 µM.
`CN(C)C(=O)C(=O)NC12CCC(CC1)Cn1c2nc(C(=O)NCCC(C)(C)C)c(O)c1=O` [Example 348] was tested, and the IC50 was > 0.1 µM.
In the case of `Cc1cc(CNC(=O)c2nc3n(c(=O)c2O)CC2CCC3(N(C)C(=O)c3cccnc3)CC2)ccc1F` [Example 319, 7,10-Ethanopyrimido[1,2-a]azepine-2-carboxamide, N-[(4-fluoro-3-methylphenyl)methyl]-4,6,7,8,9,10-hexahydro-3-hydroxy-10-[methyl(3-pyridinylcarbonyl)amino]-4-oxo-], the IC50 is reported as < 0.01 µM.
For `O=C(NCc1ccc(F)cc1)c1nc2n(c(=O)c1O)CC1CCC2(NC(=O)C2CCCN2S(=O)(=O)c2ncn[nH]2)CC1` (stereo not drawn) [Example 409], the IC50 was < 0.01 µM.
With `CN(C)C(=O)C(=O)NC12CCC(CC1)Cn1c2nc(C(=O)NCc2ccc(F)c(C3CC3)c2)c(O)c1=O` [Example 128, N′-(2-((3-Cyclopropyl-4-fluorobenzyl)carbamoyl)-3-hydroxy-4-oxo-6,7,8,9-tetrahydro-7,10-ethanopyrimido[1,2-a]azepin-10(4H)-yl)-N,N-dimethylethanediamide] the IC50 was < 0.01 µM.
`CN(C)C(=O)C(=O)N1CCC[C@H]1C(=O)NC12CCC(CC1)Cn1c2nc(C(=O)NCc2ccc(F)cc2)c(O)c1=O` [Example 269, 7,10-Ethanopyrimido[1,2-a]azepine-2-carboxamide, 10-[[[(2S)-1-[2-(dimethylamino)-1,2-dioxoethyl]-2-pyrrolidinyl]carbonyl]amino]-N-[(4-fluorophenyl)methyl]-4,6,7,8,9,10-hexahydro-3-hydroxy-4-oxo-] was tested, and the IC50 was < 0.01 µM.
For `O=C(NCc1ccc(F)cc1)c1nc2n(c(=O)c1O)CC1CCC2(NC(=O)C2CCOCC2)CC1` [Example 32, N-(4-Fluorobenzyl)-3-hydroxy-4-oxo-10-((tetrahydro-2H-pyran-4-ylcarbonyl)amino)-4,6,7,8,9,10-hexahydro-7,10-ethanopyrimido[1,2-a]azepine-2-carboxamide], the IC50 was < 0.01 µM.
`CN1CCC[C@@H]1C(=O)NC12CCC(CC1)Cn1c2nc(C(=O)NCc2ccc(F)cc2)c(O)c1=O` [Example 257, 7,10-Ethanopyrimido[1,2-a]azepine-2-carboxamide, N-[(4-fluorophenyl)methyl]-4,6,7,8,9,10-hexahydro-3-hydroxy-10-[[[(2R)-1-methyl-2-pyrrolidinyl]carbonyl]amino]-4-oxo-] was tested, and the IC50 was 0.01 to 0.1 µM.
In the case of `CO[C@H]1C[C@@H](C(=O)NC23CCC(CC2)Cn2c3nc(C(=O)NCc3ccc(F)cc3)c(O)c2=O)N(S(C)(=O)=O)C1` [Example 272, 7,10-Ethanopyrimido[1,2-a]azepine-2-carboxamide, N-[(4-fluorophenyl)methyl]-4,6,7,8,9,10-hexahydro-3-hydroxy-10-[[[(2S,4S)-4-methoxy-1-(methylsulfonyl)-2-pyrrolidinyl]carbonyl]amino]-4-oxo-], the IC50 is reported as < 0.01 µM.
In the case of `COCCOC12CCC(CC1)Cn1c2nc(C(=O)NCc2ccc(F)cc2)c(O)c1=O` [Example 225, 7,10-Ethanopyrimido[1,2-a]azepine-2-carboxamide, N-[(4-fluorophenyl)methyl]-4,6,7,8,9,10-hexahydro-3-hydroxy-10-(2-methoxyethoxy)-4-oxo-], the IC50 is reported as < 0.01 µM.
With `CN(C)C(=O)C(=O)NC12CCC(CC1)Cn1c2nc(C(=O)NCc2ccccc2F)c(O)c1=O` [Example 367] the IC50 was < 0.01 µM.
For `Cc1cc(F)ccc1CNC(=O)c1nc2n(c(=O)c1O)CC1CCC2(NC(=O)C(=O)N(C)C)CC1` [Example 120, N′-(2-((4-Fluoro-2-methylbenzyl)carbamoyl)-3-hydroxy-4-oxo-6,7,8,9-tetrahydro-7,10-ethanopyrimido[1,2-a]azepin-10(4H)-yl)-N,N-dimethylethanediamide], the IC50 was < 0.01 µM.
For `Cc1cc(CNC(=O)c2nc3n(c(=O)c2O)CC2CCC3(NC(=O)c3cccnc3)CC2)ccc1F` [Example 312, 7,10-Ethanopyrimido[1,2-a]azepine-2-carboxamide, N-[(4-fluoro-3-methylphenyl)methyl]-4,6,7,8,9,10-hexahydro-3-hydroxy-4-oxo-10-[(3-pyridinylcarbonyl)amino]-], the IC50 was < 0.01 µM.
In the case of `CN(C)C(=O)C(=O)NC12CCC(CC1)Cn1c2nc(C(=O)NCc2csc(-c3ccccc3)n2)c(O)c1=O` [Example 359], the IC50 is reported as < 0.01 µM.
`CN(C)C(=O)C(=O)NC12CCC(CC1)Cn1c2nc(C(=O)NCc2ccc(F)c(F)c2)c(O)c1=O` [Example 111, N′-(2-((3,4-Difluorobenzyl)carbamoyl)-3-hydroxy-4-oxo-6,7,8,9-tetrahydro-7,10-ethanopyrimido[1,2-a]azepin-10(4H)-yl)-N,N-dimethylethanediamide] was tested, and the IC50 was < 0.01 µM.
In the case of `Cc1cc(C(=O)N2CCN(C(=O)C(=O)NC34CCC(CC3)Cn3c4nc(C(=O)NCc4ccc(F)cc4)c(O)c3=O)CC2)no1` [Example 139, N-(4-Fluorobenzyl)-3-hydroxy-10-(((4-((5-methyl-3-isoxazolyl)carbonyl)-1-piperazinyl)(oxo)acetyl)amino)-4-oxo-4,6,7,8,9,10-hexahydro-7,10-ethanopyrimido[1,2-a]azepine-2-carboxamide], the IC50 is reported as < 0.01 µM.
